Assay results as given in US11987808B2, “Method of human periferic sensory neurons differenciation from human stem cells and uses thereof” (L'OREAL, priority 2017, dated 2024).
“Also recorded” adds a separate entry of the source.

Legend:
[1] = system: hiPS cells derived sensory neurons (TRPV1 activity / substance P release); assay: Substance P release (ELISA) from hiPSC-derived sensory neurons after treatment with TRPV1 agonists and antagonists; format: cell-based, human
Description: Substance P release measured in the supernatant of sensory neurons culture after incubating 1 h at 37° C. in the presence of ligands. CAP: capsaicin; CPZ: capsazepine; RR: ruthenium red; AEA: anandamide (10 μM); KCl: high potassium solution (70 mM).
Substance P (SP) levels were determined using a commercially available ELISA kit (Cayman), following the manufacturer's instructions. Sensory neurons were cultured in a culture vessel in 24-well culture vessels at high confluence. After 24 h, cells were rinsed with fluorimetry buffer and incubated with different concentrations of agonists of TRPV1 for 45 minutes in the same buffer. When an antagonist was used, it was applied 15 minutes before, then the solution was changed to agonist plus antagonist. Subsequently, the supernatants were collected and immediately used with the ELISA kit. All experiments were performed in triplicate and absorbance levels were measured in a microculture vessel reader.
PSNs respond to irritants, such as capsaicin, via release of neuropeptides at the epidermal end and glutamate and neuropeptides in the dorsal horn of the medulla (Basbaum et al., Cellular and molecular mechanisms of pain. Cell. 2009; 139:267-284). To verify if the sensory neurons were functional with respect to neuropeptide release, after D33 they were plated onto 24-well plates and treated 10 days with HEKn conditioned medium.

TRPV1 = details: Zygmunt et al. 1999; cited from earlier work
[2] = system: TRPV1 in hiPS cells derived sensory neurons; assay: Calcium release assay (Fura-2 imaging) in hiPS cells derived sensory neurons; format: cell-based, human; details: Fura-2 340/380 nm, capsaicin 100 nM in FIG. 5
Description: Phase contrast image for cell localization (a) fluorescence image of basal calcium levels (b). Calcium responses in sensory neurons after 100 nM capsaicin (c) and 70 mM KCL treatment (d). Calcium imaging of sensory neurons with conversion of Fura-2 excitation ratio (340/380 nm) to pseudo color, according to the scale on the left of each image. Arrows indicate active cells.
Neurons were cultured in a culture vessel onto PLO and Laminin-treated coverslips (where they were treated with HEKn conditioned medium for 10 days. On the day of the experiment, the medium was removed and cells were incubated with fresh medium (without factors) containing 5 μM Fura-2 AM (Molecular Probes) and 0.04% pluronic acid for one hour at 37° C. Then this solution was replaced with fluorimetry buffer, composed of (in mM): 145 NaCl, 5 KCl, 1.2 NaHPO4, 1.5 CaCl2, 10 D-glucose, 5 HEPES pH 7.4. If an antagonist was used, it was added to this solution at this time. After 30 minutes at 37° C., the coverslips were taken to an inverted microscope (Nikon) equipped with a CCD Camera (Orca, Hamamatsu Photonics) and Lambda DG-4 light source (Sutter Instrument). The images were acquired every 500 milliseconds via MetaFluor software (Molecular Probes) and the levels of fluorescence were represented in pseudo-color. […]

[3] = system: cultured human epidermal keratinocytes; details: Inoue et al. 2002; cited from earlier work
human skin fibroblasts = details: Kim et al. 2006; cited from earlier work

CCCCC/C=C\C/C=C\C/C=C\C/C=C\CCCC(=O)NCCO [anandamide]
Substance P release ([1]; anandamide 10 μM): evoked the highest substance P release; also recorded: caused a release of substance P
Substance P release, increase compared to control ([1]; anandamide 10 μM, supernatant of sensory neurons culture after 1 h at 37° C.): 887%
EC50 at TRPV1 compared with CB1 (TRPV1): an order of magnitude higher

COc1cc(CNC(=O)CCCC/C=C/C(C)C)ccc1O [capsaicin]
Substance P release relative to basal level ([1]; capsaicin 300 nM, neurons treated 10 days with HEKn conditioned medium): triple that amount
Substance P release ([1]; capsaicin 3 μM): did not show increased release
Calcium increases mediated by TRPV1 activation (calcium signals) [2]: modest
Calcium increases mediated by TRPV1 activation (calcium signals) ([2]; listed as Capsaicin): activity could be detected
Intracellular calcium concentration [3]: produced elevations in the intracellular calcium concentration
Membrane current and intracellular calcium level (human skin fibroblasts): induced significant changes in the membrane current and the intracellular calcium level

Oc1cc2c(cc1O)CN(C(=S)NCCc1ccc(Cl)cc1)CCC2 [capsazepine]
Block of capsaicin-induced substance P release ([1]; co-treatment with capsazepine 1 μM, capsaicin 300 nM): efficiently blocked
Inhibition of capsaicin-/acidification-induced calcium increases [3]: inhibited
Antagonism of capsaicin-induced changes (human skin fibroblasts): antagonized

[Cl-].[K+] [high potassium solution]
Substance P release ([1]; high potassium solution 70 mM): substance P release equivalent to capsaicin 300 r1M

N.N.N.N.N.N.N.N.N.N.N.N.N.N.[Cl-].[Cl-].[Cl-].[Cl-].[Cl-].[Cl-].[O-2].[O-2].[Ru+3].[Ru+3].[Ru+4] [ruthenium red]
Substance P release relative to basal levels ([1]; pre-incubation with ruthenium red 10 μM followed by capsaicin 3 μM): seemed to decrease substance P release below basal levels
